Measured values reported in US20060084704A1, “Methods and compositions for enhancing degradation of nuclear receptor transcription factors and uses thereof” (priority 2004, published 2006).

Tests used:
AR = target: T1, AR (Homo sapiens, UniProt P10275, T878A); assay type: cell-based; details: LNCaP, JC9 5 micromolar about 20 hours, then cycloheximide 15 micrograms/milliliter
T1 construct: LNCaP cells express an endogenous mutant AR that is found in prostate cancer patients; host or cells: LNCaP
T1 sequence (P10275 1-920 T878A): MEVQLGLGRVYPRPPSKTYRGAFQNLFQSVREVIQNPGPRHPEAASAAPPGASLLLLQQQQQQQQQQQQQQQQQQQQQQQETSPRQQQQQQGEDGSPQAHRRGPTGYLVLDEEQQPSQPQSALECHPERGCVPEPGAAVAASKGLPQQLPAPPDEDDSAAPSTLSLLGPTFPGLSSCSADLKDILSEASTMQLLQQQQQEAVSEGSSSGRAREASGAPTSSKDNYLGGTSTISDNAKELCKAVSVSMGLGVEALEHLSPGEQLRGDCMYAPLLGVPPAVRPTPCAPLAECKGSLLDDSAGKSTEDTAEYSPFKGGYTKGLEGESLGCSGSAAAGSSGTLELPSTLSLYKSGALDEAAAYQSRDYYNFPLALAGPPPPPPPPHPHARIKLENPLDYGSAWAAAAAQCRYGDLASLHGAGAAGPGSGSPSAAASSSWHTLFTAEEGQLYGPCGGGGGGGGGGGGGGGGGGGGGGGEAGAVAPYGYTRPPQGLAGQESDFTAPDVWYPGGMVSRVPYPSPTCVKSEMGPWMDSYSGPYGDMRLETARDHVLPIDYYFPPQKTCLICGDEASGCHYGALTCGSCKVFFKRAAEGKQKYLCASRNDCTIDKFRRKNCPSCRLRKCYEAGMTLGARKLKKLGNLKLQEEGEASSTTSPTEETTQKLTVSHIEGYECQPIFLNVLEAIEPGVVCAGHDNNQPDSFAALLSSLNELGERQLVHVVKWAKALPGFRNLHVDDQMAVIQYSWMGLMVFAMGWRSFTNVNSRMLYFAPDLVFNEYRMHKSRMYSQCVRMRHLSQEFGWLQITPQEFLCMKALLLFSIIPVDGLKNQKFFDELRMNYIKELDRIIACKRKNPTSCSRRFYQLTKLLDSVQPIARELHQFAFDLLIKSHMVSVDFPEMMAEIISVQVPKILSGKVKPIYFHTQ
Experimental: To determine whether the observed reduction of AR protein levels was due to protein degradation rather than inhibition of AR protein synthesis, a second set of three replicate experiments was performed. […] In the absence of new AR protein synthesis, any alterations in AR levels would be mainly attributable to protein degradation. LNCaP cells were cultured, and incubated with JC9 (5 micromolar) for about 20 hours.

retinoid X receptor = assay: Western blot of LNCaP cell lysates, RXR; assay type: cell-based, human; details: 1 or 2 micromolar, 24 hours, presence or absence of DHT
Experimental: Human prostate cancer LNCaP cells and T47D cells were plated at a density of 7×10^5 cells per 60 millimeter tissue culture dish in […] (RPMI) medium containing 10% FBS. The medium was changed to RPMI or DME medium containing 10% charcoal-stripped serum 24 hours later to deplete cellular androgens or estrogens. After another 24 hours, treatment with the test compounds began. The test dose of JC15 was 1 or 2 micromolar and the test does of JC9 was 1, 5 and 10 micromolar. LNCap cells also received dihydrotestosterone (DHT) (3 nanomolar). Control cells received a corresponding amount of the vehicle, dimethylsulfoxide (DMSO) (<0.04%) for an equivalent exposure time. Cells were incubated with JC15 for 24 or 48 hours, and were lysed in 250 microliters of 1×SDS/PAGE loading buffer. Approximately 40 micrograms of total cellular protein was loaded in each lane of a pre-cast gel (NuPAGE, Invitrogen). Protein separation and transfer were performed following the manufacturer's instructions.
For the prostate cell lysates, androgen receptor (AR) protein was visualized by incubating the resultant membranes with an anti-AR antibody (BD-PharMingen), followed by chemiluminescence detection (ECL Plus, Amersham). […] The resultant protein signals were quantified using densitometry and NIH ImageJ software.

Row | SMILES | time within which degradation of existing AR protein was enhanced (AR) [h] | cellular concentration of retinoid X receptor (retinoid X receptor)
1 | COc1ccc(C=CC(=O)C=C(O)C=Cc2ccc(OC)c(OC)c2)cc1OC [JC9, 5-hydroxy-1,7-bis(3,4-dimethoxyphenyl)-1,4,6-heptatrien-3-one] | ≤ 4 | –
2 | CCOC(=O)CCC(C(=O)C=Cc1ccc(O)c(OC)c1)C(=O)C=Cc1ccc(O)c(OC)c1 (centres unmarked) [JC15, 7-(4-hydroxy-3-methoxyphenyl)-4-[3-(4-hydroxy-3-methoxyphenyl)acryloyl]-5-oxo-hept-6-enoic acid ethyl ester] | – | did not substantially affect
